One compound from patent publication US20040209900A1, “Treatment of lipodystrophy (lipid redistribution syndrome)” (priority 2003, published 2004) can be followed below.

SMILES strings stand for the structures.

For this assay, the system named is lipodystrophy. The assay can be described thus: Observation of lipodystrophy signs and symptoms in patients using pentoxifylline for claudication. Type of assay: in vivo, human. The text has this: It is believed that 80-85% of patients respond favorably with amelioration some or all of their symptoms.
Setting [1] is: diabetic HIV positive patients using pentoxifylline for claudication.

Regarding `CC(=O)CCCCn1c(=O)c2c(ncn2C)n(C)c1=O` [pentoxifylline], under setting [1], the central fat deposition entry was “resolved or remitted”, the facial lines entry was “decreased and/or disappeared” and the leg vein prominence entry is reported as “diminished or disappeared”. Besides, the “signs and symptoms of lipodystrophy” value (diabetic HIV positive patients with peripheral vascular disease and intermittent claudication, using pentoxifylline for claudication) is reported as “disappeared or were ameliorated”. Also, under “patients using pentoxifylline, stated as 'It is believed'”, the “patients responding favorably with amelioration of some or all of their symptoms” value is 80-85%.
